According to ChEMBL document CHEMBL1158921, “Antitumor agents, 116. Cytotoxic triterpenes from Maytenus diversifolia” (1990):
In brackets after ≈: the same amount, converted by molar mass. Activity calls are given as the source filed them. No cut-off for these calls is given here.

How the values were obtained:
Format in all cases: functional
A549 = experiment: Cytotoxicity against human A549 cells; conditions: for EC50: read-out: ED50 (the source's name)
KB = experiment: Cytotoxicity against human KB cells
L1210 = experiment: Cytotoxicity against mouse L1210 cells
[1] = read-out: ED50 (the source's name)

C[C@H]1C(=O)CC[C@@H]2[C@]1(C)CC[C@H]1[C@@]2(C)CC[C@@]2(C)[C@@H]3C[C@](C)(C(=O)O)CC[C@]3(C)CC[C@]12C [MAYTENOIC ACID]
EC50 (A549): 0.21 µg/mL (≈ 0.46 µM)

C[C@H]1C(=O)CC[C@@H]2[C@]1(C)CC[C@H]1[C@@]2(C)CC[C@@]2(C)[C@@H]3C[C@](C)(CO)CC[C@]3(CO)CC[C@]12C
EC50 (A549): 0.64 µg/mL (≈ 1.4 µM)

C[C@H]1[C@H](C)CC[C@]2(C(=O)O)CC[C@]3(C)C(=CC[C@@H]4[C@@]5(C)CC[C@H](O)C(C)(C)[C@@H]5CC[C@]43C)[C@H]12
Activity (A549): Active | Activity (KB): Active | Activity (L1210): Active

C[C@H]1C(=O)CC[C@@H]2[C@]1(C)CC[C@H]1[C@@]2(C)CC[C@@]2(C)[C@@H]3CC(C)(C)CC[C@]3(C(=O)O)CC[C@]12C
EC50 (A549): 1.18 µg/mL (≈ 2.58 µM) | EC50 (KB; [1]): 3.7 µg/mL (≈ 8.1 µM) | EC50 (L1210; [1]): 2.95 µg/mL (≈ 6.46 µM)
